This is an account of results in patent US4303672A, “Cyclopropanecarboxylate insecticides and/or acaricides exhibiting low toxicity to mammals and fish” (priority 1979, dated 1981).

The structures appear in SMILES notation. ≈ marks a conversion by molar mass, not a printed value. Read-outs that look alike come from different tables or passages of the source.

Series [1] relates to green rice leafhopper (Nephotettix cincticeps). Description: Test Example 1: Test for insecticidal activity (green rice leafhopper). Type of series: in vivo. Conditions: green rice leafhopper R-strain, spray on rice plant, 26° C., 24 hours, 3 replications, read-out: LC50 (median lethal concentration). From the text:
The emulsifiable concentrates of the present compounds and reference compound prepared in Preparation Example 1 were each formulated into test solutions having four different concentrations of active ingredient between 500 ppm and 0.5 ppm. Each test solution was sprayed on rice plant in a 180-ml plastic cup which had elapsed one month after sowing, at a rate of 15 cc/2 cups by means of a turn table. After air-drying, the rice plant was covered with a wire-screen cage, and 15 female adults of green rice leafhopper (Nephotettix cincticeps) (a strain resistant to carbamates and organo-phosphates, hereinafter referred to as R-strain) were liberated therein. The plant was placed in an artificial climate chamber kept at 26° C. After 24 hours, the dead and alive were examined. The median lethal concentration [LC50 (ppm)] was calculated from the mortality determined by 3 replications.
(§1) A detailed explanation will be given as to a method of how to calculate the safety coefficient. In the case of green rice leafhoppers, calculation was based on the concentration of active ingredient in water obtained by applying a test solution containing the active ingredient in an amount corresponding to LC50 (ppm) to a flooded paddy field 5 cm deep at a rate of 100 liter/10 are, provided that all the active ingredient applied entered the water.
(§2) In this case, the coefficient is 333, which means that the present compound (1) has a 333-fold safety.

Series [2] has as its system yellow fever mosquito (Aedes aegypti). In kind it is in vivo. As to conditions: 50 mg granule in 100 cc water, full grown larvae, 24 hours. As to the method:
Fifty milligrams of the granule of the present compound (1) obtained in Preparation Example 6 was placed in a 100-cc beaker containing 100 cc of distilled water, and 30 full grown larvae of yellow fever mosquito (Aedes aegypti) were liberated therein. After 24 hours, 100% of the larvae could be killed.

The nature of series [3]: Test Example 7: Test for toxicity to fishes (fry carp). As to conditions: water, read-out: Toxicity to fishes TLm48. In kind it is in vivo, fry carp (Cyprinus carpio). The protocol:
(§3) Toxicity to killifish (Oryzias latipes) was tested according to the test method for toxicity to fishes described in Notification B No. 2735 of the Ministry of Agriculture and Forestry (Nov. 25, 1965). Namely, each of the present compounds (1), (4), (5) and (6) was dissolved or suspended in "Tween 80" and diluted successively with dechlorinated tap water. Ten killifish (0.2-0.3 g per fish) were released in a 10-liter glass vessel containing 5 liters of each preparation.
Toxicity to fry carp (Cyprinus carpio) was tested according to the test method for toxicity to fishes described in Notification B No. 2735 of the Ministry of Agriculture and Forestry (Nov. 25, 1965). The comparative test was made in a manner similar to that of Test Example 1.

Series [4] concerns killifishes (Oryzias latipes). As to the kind of experiment: Test Example 6: simulated paddy field test, killifish. In kind it is in vivo. Conditions: 100 ppm at 100 liter/10 are, water depth 5 cm, after 48 hours. As to the method: (§4) The wettable powder of each of the present compounds (1), (2), (4) and (5) prepared in Preparation Example 4 was diluted with water so that the concentration of active ingredient was 100 ppm. Soil was placed in a plastic box [5 m×5 m×2 m (deep)] to a level of 50 cm from the bottom, and rice plants about 50 cm high were transplanted at intervals of 50 cm. Water was then placed in the box so that water depth was 5 cm, and 20 killifishes (Oryzias latipes) were liberated therein. Thereafter, the above dilute solution was sprayed on the box at a rate of 100 liter/10 are. The solution fell on the rice plants as well as on the water surface.
(§5) One hour after treatment, 100 female adults of green rice leafhopper (Nephotettix cincticeps) were liberated in the box which was immediately covered with a net.

The subject of series [5] is killifish (Oryzias latipes). As to the kind of experiment: Test Example 1: Test for toxicity to fishes (killifish). In kind it is in vivo. Conditions: TLm48 killifish (a) / concentration of active ingredient in water (b) at green rice leafhopper LC50. As to the method: as §3
(§6) In order to make it clearer that the present compounds have a low toxicity to fishes as well as a high insecticidal activity, a safety coefficient to fishes was calculated from the test results of toxicity to fishes and insecticidal activity. [formula]
as §1, §2

Test in series [6]: as above
Conditions: water; killifish, 48 hours; read-out: Toxicity to fishes TLm48 (medium tolerance limit, 48 hours). Type of series: in vivo, killifish (Oryzias latipes). The protocol: as §3, §6, §1, §2

Series [7] has as its system carmine mites (Tetranychus cinnabarinus). Description: Test Example 4: spray test against carmine mites on rice plants. Type of series: in vivo. As to conditions: 500 ppm spray, all stages, after 10 days. As to the method: The emulsifiable concentrate of each of the present compounds (1) and (6) prepared in Preparation Example 1 was diluted with water so that the concentration of the active ingredient was 500 ppm. The dilute liquor was thoroughly sprayed on rice plants (grown in a 1/10,000 are Wagner's pot) on which carmine mites (Tetranychus cinnabarinus) in all stages were made parasitic.

Series [8] deals with green rice leafhopper (Nephotettix cincticeps). As to the kind of experiment: Test Example 6: simulated paddy field test, green rice leafhopper. Type of series: in vivo. As to conditions: 100 ppm at 100 liter/10 are, after 48 hours. As to the method: as §4, §5
Series [9] has the same test system. Description: Test Example 5: Residual effect test (green rice leafhopper). In kind it is in vivo. As to the method:
The emulsifiable concentrate of the present compound (1) prepared in Preparation Example 1 was diluted with water so that the concentration of active ingredient was 400 ppm. Thereafter, 20 cc of the dilute solution was sprayed on rice plants grown in a 1/10,000 are Wagner's pot. The rice plants were air-dried and covered with a wire-screen cage, and 15 female adults of green rice leafhopper (Nephotettix cincticeps) were liberated therein. After 24 hours, the dead and alive were examined to obtain mortality. In order to examine the residual effect, the pot was then left as it was for 7 days, and the test insects were liberated in the same manner as above. After 24 hours, the mortality was examined. The experiment was carried out in a greenhouse and the number of replications was three.

As usually defined, the mortality is the percentage killed. Turning to `CC1(C)C(C(=O)OC(C#N)c2cccc(Oc3ccc(Br)cc3)c2)C1C(Br)C(Cl)(Cl)Br` (stereo not drawn) [(1), m-(p-Bromophenoxy)-α-cyanobenzyl 2,2-dimethyl-3-(1,2-dibromo-2,2-dichloroethyl)cyclopropanecarboxylate], the LC50 in series [1] worked out at 5.8 µg/mL (≈ 8.85 µM). Besides, the larvae killed in series [2] came out at 100%. In addition, the LC50 at 48 h is over 1 µg/mL in series [3] and 4 µg/mL (≈ 6.11 µM) in series [6]. In addition, the killifish survival entry in [4] is given as “all the killifishes were alive”. In addition, the “Safety coefficient to fishes (a)/(b)” value in series [5] came to 333. In series [7], the “spreading of the damage to rice plants by carmine mites” value is reported as “the spreading of the damage could be prevented”. The “alive green rice leafhoppers found” value in [8] was “no alive green rice leafhoppers were found”. In addition, the mortality at 400 ppm in series [9] (400 ppm spray, 24 hours after liberation, greenhouse, read-out: Mortality, effect immediately after treatment) came out at 100%; in series [9] (400 ppm spray, insects liberated 7 days after treatment, 24 hours, greenhouse, read-out: Mortality, effect 7 days after treatment) it was 100%.

Turning to `CNC(=O)Oc1ccc(C)c(C)c1` [MPMC, 3,4-Xylyl Nmethylcarbamate-, reference compound], the mortality at 400 ppm in series [9] (24 h, read-out: Mortality, effect immediately after treatment) is 100%; in [9] (read-out: Mortality, effect 7 days after treatment) it was 0%.

With `CC1(C)C(C(=O)OC(C#N)c2cccc(Oc3ccccc3)c2)C1C(Br)C(Cl)(Cl)Br` (centres unmarked) [(A), reference compound], the LC50 in [1] was found to be 5 µg/mL (≈ 8.68 µM). In addition, the LC50 at 48 h in [3] stood at 0.00395 µg/mL (≈ 0.00686 µM); in series [6], 0.5 µg/mL (≈ 0.868 µM). For the same compound, in series [5], the “Safety coefficient to fishes (a)/(b)” value came out at 50.

`CC1(C)[C@H](C(=O)OC(C#N)c2cccc(Oc3ccc(Br)cc3)c2)[C@@H]1C(Br)C(Cl)(Cl)Br` (relative stereo) [(3), m-(p-Bromophenoxy)-α-cyanobenzyl dl-cis-2,2-dimethyl-3-(1,2-dibromo-2,2-dichloroethyl)cyclopropanecarboxylate]: the LC50 at 48 h in [3] is over 1 µg/mL.

As for `CC1(C)[C@H](C(=O)OC(C#N)c2cccc(Oc3ccc(Br)cc3)c2)[C@H]1C(Br)C(Br)(Br)Br` (stereo partly drawn) [(5), m-(p-Bromophenoxy)-α-cyanobenzyl d-trans-2,2-dimethyl-3-(1,2,2,2-tetrabromoethyl)cyclopropanecarboxylate], the LC50 in series [1] was determined as 1.7 µg/mL (≈ 2.29 µM). In addition, in series [4], the killifish survival entry is on record as “all the killifishes were alive”. Also, in series [5], the “Safety coefficient to fishes (a)/(b)” value is over 1667. Besides, the LC50 at 48 h in [6] is over 5 µg/mL. Further, in series [8], the “alive green rice leafhoppers found” value is on record as “no alive green rice leafhoppers were found”.

Consider `CC1(C)C(C(=O)OC(C#N)c2cccc(Oc3ccc(Br)cc3)c2)C1C(Br)C(Br)(Br)Br` (stereo not drawn) [(4), m-(p-Bromophenoxy)-α-cyanobenzyl 2,2-dimethyl-3-(1,2,2,2-tetrabromoethyl)cyclopropanecarboxylate], for which the LC50 in [1] was found to be 10 µg/mL (≈ 13.4 µM). Also, the killifish survival result in series [4] is “all the killifishes were alive”. In addition, the “Safety coefficient to fishes (a)/(b)” value in [5] was over 500. In series [6], the LC50 at 48 h is over 10 µg/mL. Besides, the “alive green rice leafhoppers found” value in series [8] is listed as “no alive green rice leafhoppers were found”.

As for `CC1(C)[C@H](C(=O)OC(C#N)c2cccc(Oc3ccc(Br)cc3)c2)[C@H]1C(Br)C(Cl)(Cl)Br` (relative stereo) [(2), m-(p-Bromophenoxy)-α-cyanobenzyl dl-trans-2,2-dimethyl-3-(1,2-dibromo-2,2-dichloroethyl)cyclopropanecarboxylate], in series [3], the LC50 at 48 h is over 1 µg/mL. Moreover, the killifish survival entry in series [4] was “all the killifishes were alive”. In series [8], the “alive green rice leafhoppers found” value is “no alive green rice leafhoppers were found”.

Take `CC1(C)C(C(=O)OC(C#N)c2cccc(Oc3ccc(F)cc3)c2)C1C(Br)C(Cl)(Cl)Br` (centres unmarked) [(B), reference compound]: the LC50 in series [1] turned out to be 6.5 µg/mL (≈ 10.9 µM). In addition, the figures for the LC50 at 48 h in [3] and in [6] were 0.0028 µg/mL (≈ 0.00471 µM) and 0.1 µg/mL (≈ 0.168 µM), respectively. Further, in series [5], the “Safety coefficient to fishes (a)/(b)” value was found to be 8.

For `CC1(C)[C@H](C(=O)OC(C#N)c2cccc(Oc3ccc(Br)cc3)c2)[C@@H]1C(Br)C(Br)(Br)Br` (stereo partly drawn) [(6), m-(p-Bromophenoxy)-α-cyanobenzyl d-cis-2,2-dimethyl-3-(1,2,2,2-tetrabromoethyl)cyclopropanecarboxylate], the LC50 in series [1] came out at 9.5 µg/mL (≈ 12.8 µM). Also, the “Safety coefficient to fishes (a)/(b)” value in series [5] is over 263. The LC50 at 48 h in [6] is over 5 µg/mL. Also, in series [7], the “spreading of the damage to rice plants by carmine mites” value is recorded as “the spreading of the damage could be prevented”.
